Experimental data: patent publication US9422324B2, “6-substituted demethyl-estradiol derivatives as selective ER-β agonists” (priority 2010, dated 2016)

What was measured:
ERβ = ERβ (Homo sapiens (Human), UniProt Q92731); assay: Luciferase reporter assay in MDA-MB-231 cells transfected with ERα or ERβ; assay type: cell-based; details: MDA-MB-231, 24 hours; relative to B and I; from FIGS. 2 and 3 and Table 1
Method: Response of I and B on ERα and ERβ is measured by a luciferase assay. MDA-MB-231 cells are transiently transfected with expression vectors encoding either ERα or ERβ and co-transfected with a luciferase reporter construct. Cells are treated for 24 hours at […] with increasing amounts of test article.

TREK1 = assay: Expression profiling (Agilent microarray), TREK1 gene transcription in tumor cell lines; assay type: cell-based, human; details: 24 hours
Method: (§1) The study includes three human tumor cell lines: A549, Panc-1, and SK-OV-3. The lines are each grown in two flasks cultured to roughly 40% confluence. One of the flasks is treated by addition of drug to the culture media at a various concentrations. The other, mock treated, flask is treated only with the vehicle used to solubilize and deliver the drug. RNA extracted from the pairs of treated and untreated samples is subjected to microarray analysis on Agilent Whole Human Genome Microarrays (G4112F). Each analysis reports the difference in abundance of messenger RNAs for each of the 41,000 specific mRNA detectors on the array. This direct comparison of the treated versus untreated samples for each cell line provides extremely sensitive detection of changes in mRNA abundance resulting from the drug treatment. As each cell line comparison is self-normalized, the results can be compared across the samples with high confidence.
(§2) Three human tumor cell lines, A549, Panc-1, and SK-OV-3, are each grown in two flasks cultured to roughly 40% confluence. One of the flasks is treated by addition of compound 1 to the culture media at concentrations according to Table 1 above. The other, mock treated, flask is treated only with the vehicle used to solubilize and deliver the drug. All flasks are cultured for a further 24 hours, and then the cells are scraped free and washed in ice-cold PBS, then collected by centrifugation. The harvested cells are immediately frozen, and stored at −80° C. or colder. It is visually noticeable that the treated cells yielded less mass than the untreated cells.
(§3) Total RNA is prepared from the frozen tissue samples using Trizol-based cell lysis followed by 65° C. hot phenol extraction and RNeasy chromatography purification. The purified RNA samples are analyzed spectrophotometrically. The concentration of RNA is determined by measuring the absorbance at 260 nm (A260). Given an absorbance of 1 unit at 260 nm corresponds to […].
(§4) All RNAs are labeled using 1 microgram of RNA as input to an Agilent Low Input Labeling reaction.
(§5) Test RNA is labeled with Cy5 (650 nm emitter) and reference RNA is labeled with Cy3 (550 nm emitter) nucleotides. Labeling, hybridizations and subsequent washings are carried out on Agilent H1Av2 human expression chips. The resulting hybridized chips are scanned on an Agilent microarray scanner, and intensity information for each detector spot is extracted from the scanned image using Agilent feature extraction software. The set of data images and extracted measurements from each image are supplied.
(§6) The data reported are the red (treated) and green (untreated) background-subtracted signals. This is the least modified form of the data. A background “surface” is estimated across the slide, based on numerous probes that are not complementary to human DNA. These serve as estimators of both non-specific binding of labeled cRNA to array surfaces and non-specific binding of labeled cRNA to the immobilized DNA oligomers. Using this information, local noise around each probe is estimated and this is subtracted from the signal found at the area of oligonucleotide deposition for each particular probe feature on the array (gBGSubSignal, rBGSubSignal). The ratio of signal from the RNA of the treated cell and the RNA of the untreated cell is reported both as a direct ratio and as the log2 ratio (Ratio, Log2Ratio).
(§7) After the ratios have been calculated for the normalized data, the various control and duplicate samples are analyzed to build a model of how reproducible the results are, and how this reproducibility is varies depending on signal strength and noise. With these parameters, an estimate of the likelihood that each ratio could have arisen if the red and green intensities are randomly drawn from a single process that produced the same distribution of intensities is produced. […]

TREK2 = assay: Expression profiling (Agilent microarray), TREK2 gene transcription in tumor cell lines; assay type: cell-based, human; details: 24 hours
Method: as §1, §2, §3, §4, §5, §6, §7

Sequence of ERβ (Q92731 whole entry, species assumed): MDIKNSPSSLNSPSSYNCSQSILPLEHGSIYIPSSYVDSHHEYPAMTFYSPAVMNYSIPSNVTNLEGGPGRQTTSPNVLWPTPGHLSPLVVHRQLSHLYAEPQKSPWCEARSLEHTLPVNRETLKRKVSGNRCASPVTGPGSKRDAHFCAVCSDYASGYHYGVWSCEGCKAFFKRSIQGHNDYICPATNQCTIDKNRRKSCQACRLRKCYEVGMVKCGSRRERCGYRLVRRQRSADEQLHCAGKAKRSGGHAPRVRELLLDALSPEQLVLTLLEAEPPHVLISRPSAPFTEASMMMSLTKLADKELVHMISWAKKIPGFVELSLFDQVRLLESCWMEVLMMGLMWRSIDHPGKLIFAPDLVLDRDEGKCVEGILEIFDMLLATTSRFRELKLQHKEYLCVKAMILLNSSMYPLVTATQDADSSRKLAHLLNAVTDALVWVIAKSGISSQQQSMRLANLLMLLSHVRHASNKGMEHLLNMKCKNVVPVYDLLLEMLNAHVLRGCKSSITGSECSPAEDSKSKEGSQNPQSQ

SMILES: COC[C@@H]1C[C@@H]2[C@H](CCC3[C@H]2CC[C@@H]3O)c2ccc(O)cc21 (stereo partly drawn) [compound 1, (6R,8S,9S,14S,17S)-6-(methoxymethyl)-7,8,9,11,12,13,14,15,16,17-decahydro-6H-cyclopenta[a]phenanthrene-3,17-diol]
- ER subtype functional profile (% of E2 activity on ERα and ERβ) (ERβ): ERβ specific agonist
- TREK1 Log 2 ratio treated/untreated (TREK1; A549, 50 μM): 4.07/
- TREK1 Log 2 ratio treated/untreated (TREK1; A549, 100 μm): 3.53/
- TREK1 Log 2 ratio treated/untreated (TREK1; PANC1, 50 μM): 2.05/
- TREK1 Log 2 ratio treated/untreated (TREK1; PANC1, 20 μm): 4.78/
- TREK1 Log 2 ratio treated/untreated (TREK1; PANC1, 100 μm): 3.51/
- TREK1 Log 2 ratio treated/untreated (TREK1; SKOV-3, 50 μM): 2.80/
- TREK1 Log 2 ratio treated/untreated (TREK1; SKOV-3, 20 μm): 1.96/
- TREK1 Log 2 ratio treated/untreated (TREK1; SKOV-3, 100 μm): 1.97/
- TREK2 Log 2 ratio treated/untreated (TREK2; A549, 50 μM): 5.37/
- TREK2 Log 2 ratio treated/untreated (TREK2; A549, 20 μm): 3.79/
- TREK2 Log 2 ratio treated/untreated (TREK2; A549, 100 μm): 3.00/
- TREK2 Log 2 ratio treated/untreated (TREK2; PANC1, 50 μM): 4.20/
- TREK2 Log 2 ratio treated/untreated (TREK2; PANC1, 20 μm): 4.15/
- TREK2 Log 2 ratio treated/untreated (TREK2; PANC1, 100 μm): 3.91/
- TREK2 Log 2 ratio treated/untreated (TREK2; SKOV-3, 50 μM): 5.56/
- TREK2 Log 2 ratio treated/untreated (TREK2; SKOV-3, 20 μm): 4.12/
- TREK2 Log 2 ratio treated/untreated (TREK2; SKOV-3, 100 μm): 4.07/
